Experimental data: patent publication US20220324835A1 (Nurix Therapeutics, Inc., priority 2018, published 2022)
Like-named read-outs stand apart in the source and are kept apart here.

Experiments:
T-cell [1] = experiment: IL-2 secretion from T-cells co-stimulated with anti-CD3 and anti-CD28 antibody (Biological Example 2); format: cell-based, human; settings: Homo sapiens, T-cell, primary human total T-cells
Procedure, shortened: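 T-cells were stimulated with anti-CD3 antibody alone or with anti-CD28 antibody, in the presence or absence of Cbl-b inhibitor. IL-2 secretion or CD25 surface staining was measured, and values expressed as fold over the uninhibited baseline […].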

anergic human T-cells = experiment: Anergic T-cell activation assessed by IFNγ secretion (ionomycin-induced anergy); format: cell-based; settings: anergic T-cells re-challenged with anti-CD3 and anti-CD28 for 24 hours, read-out: IFNγ Fold change from baseline
From the text: Peripheral blood mononuclear cells (PBMC) were obtained either: 1) by using Ficoll-Paque™ (GE Healthcare) for separation of peripheral blood hematopoietic cells from buffy coats of healthy human donors; or 2) directly from LeukoPak donations. Total human primary T-cells were isolated from the PBMCs utilizing negative selection with commercial kits following the manufacturer's protocol (Miltenyi Catalog #130-096-535 (i.e., cocktail of antibodies against surface markers CD14, CD15, CD16, CD19, CD34, CD36, CD56, CD123 and CD235a were incubated with the PBMCs before passing the samples by magnetic beads for removal of cells expressing those surface markers) or StemCells Catalog #17951) to yield >95% CD3+ cells assessed by flow cytometry. The cells were activated with immobilized anti-CD3 antibody (OKT3) and soluble anti-CD28 antibody (28.2) for two days at which time they are washed and allowed to rest for three days in the absence of stimulation. They were then treated with ionomycin (Sigma) for 18-24 hours to induce anergy. Following two washes to remove the ionomycin from the samples, Cbl-b inhibitor compounds were added to the cells at the indicated concentrations (e.g. 10, 1.11 and 0.37 μM) and incubated for 1 hour. The cells were then re-challenged with anti-CD3 antibody and anti-CD28 antibody for 24 hours at which point cell free supernatants were collected and assessed for cytokines (e.g., IFNγ) by ELISA (R&D Systems or Peprotech) or Luminex multiplex kits (Procarta Life Technologies) following manufacturer's protocols.
Cbl-b inhibitors were tested to determine their ability to induce or enhance secretion of cytokines from anergic T-cells (e.g. IFNγ), which is indicative of decreased T-cell tolerance.
Readouts were reported as fold change over baseline. Baseline for this study was the measurement obtained from anergic human T-cells stimulated with immobilized anti-CD3 and soluble anti-CD28, wherein the T-cells were not incubated with a Cbl-b inhibitor (Table 7). For IFNγ changes greater than 2.5-fold over baseline were considered a positive response (Table 7). Compounds were ranked into bins according to their readout as follows for IFNγ: A indicates ≤2.50, B indicates 2.51-4.00 and C indicates >4.01.

T-cell [2] = experiment: IL-2 secretion from T-cells stimulated with anti-CD3 antibody alone (Biological Example 2); format: cell-based; settings: primary human total T-cells, read-out: IL-2 secretion, Anti-CD3 stimulation, fold change over baseline; for fold induction at 1 µM: 1 μM compound; for fold induction at 8 µM: 8 μM compound
Cbl-b (residues 36-427) = Cbl-b (residues 36-427) (Homo sapiens, UniProt Q13191); experiment: Cbl-b binding assay (SPR, Biacore T200); settings: 20° C., 1:1 binding model
Sequence of Cbl-b (residues 36-427) (Q13191 36-427): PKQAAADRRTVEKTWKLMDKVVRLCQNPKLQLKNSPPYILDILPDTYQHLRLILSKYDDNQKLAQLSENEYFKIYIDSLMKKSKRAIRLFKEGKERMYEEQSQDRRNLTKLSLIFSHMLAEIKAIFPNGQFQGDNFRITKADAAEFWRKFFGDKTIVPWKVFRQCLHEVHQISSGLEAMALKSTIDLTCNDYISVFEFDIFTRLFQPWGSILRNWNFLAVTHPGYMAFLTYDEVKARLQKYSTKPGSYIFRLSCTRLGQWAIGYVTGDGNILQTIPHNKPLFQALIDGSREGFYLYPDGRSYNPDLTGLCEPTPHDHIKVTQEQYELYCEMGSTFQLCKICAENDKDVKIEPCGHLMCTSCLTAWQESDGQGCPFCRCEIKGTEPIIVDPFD
Procedure, shortened: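 Steps: capture protein on NeutrAvidin surface; inject compound dilutions (8 or 10 points from 100 or 50 μM) 50 s; allow 90-180 s dissociation; regenerate 20 s with 0.3 M NaCl. Runs at 20° C in HEPES pH 7.5/100 mM NaCl/2% DMSO; 1:1 fitting.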

[3] = 0.3 μM compound, baseline = anti-CD3/anti-CD28 stimulated cells without inhibitor, read-out: IL-2 secretion, Anti-CD3/Anti-CD28 stimulation, fold change over baseline
[4] = 1 μM compound, baseline = anti-CD3/anti-CD28 stimulated cells without inhibitor, read-out: IL-2 secretion, Anti-CD3/Anti-CD28 stimulation, fold change over baseline
[5] = 4 μM compound, baseline = anti-CD3/anti-CD28 stimulated cells without inhibitor, read-out: IL-2 secretion, Anti-CD3/Anti-CD28 stimulation, fold change over baseline
[6] = fold change over baseline, 0.3 μM Cbl-b inhibitor, read-out: IL-2 secretion Anti-CD3/Anti-CD28 stimulation
[7] = fold change over baseline, 1 μM Cbl-b inhibitor, read-out: IL-2 secretion Anti-CD3/Anti-CD28 stimulation
[8] = fold change over baseline, 4 μM Cbl-b inhibitor, read-out: IL-2 secretion Anti-CD3/Anti-CD28 stimulation

SMILES: Cn1cnnc1CC1(c2cccc(N3Cc4c(cc(CN5CC[C@H](C#N)C5)cc4C(F)(F)F)C3=O)c2)COC1 [Compound 422, (S)-1-((2-(3-(3-((4-methyl-4H-1,2,4-triazol-3-yl)methyl)oxetan-3-yl)phenyl)-3-oxo-7-(trifluoromethyl)isoindolin-5-yl)methyl)pyrrolidine-3-carbonitrile]
- fold induction at 0.3 µM (T-cell [1]; [3]): 5 to 7.5
- fold induction at 1 µM (T-cell [1]; [4]): > 7.5
- fold induction at 4 µM (T-cell [1]; [5]): > 7.5
- fold induction at 0.37 µM (anergic human T-cells): ≤ 2.5
- fold induction at 1.11 µM (anergic human T-cells): 2.51 to 4
- fold induction at 10 µM (anergic human T-cells): 2.51 to 4
- fold induction at 1 µM (T-cell [2]): > 0.201
- fold induction at 8 µM (T-cell [2]): > 0.201

SMILES: Cn1cnnc1CC1(c2cccc(N3Cc4c(cc(CN5CC(F)C5)cc4C(F)(F)F)C3=O)c2)COC1 [Compound 415, 6-((3-fluoroazetidin-1-yl)methyl)-2-(3-(3-((4-methyl-4H-1,2,4-triazol-3-yl)methyl)oxetan-3-yl)phenyl)-4-(trifluoromethyl)isoindolin-1-one]
- fold induction at 0.3 µM (T-cell [1]; [3]): 5 to 7.5
- fold induction at 1 µM (T-cell [1]; [4]): > 7.5
- fold induction at 4 µM (T-cell [1]; [5]): > 7.5
- fold induction at 0.37 µM (anergic human T-cells): 2.51 to 4
- fold induction at 1.11 µM (anergic human T-cells): 2.51 to 4
- fold induction at 10 µM (anergic human T-cells): > 4.01
- fold induction at 1 µM (T-cell [2]): 0.151 to 0.2
- fold induction at 8 µM (T-cell [2]): > 0.201

SMILES: C[C@@H](c1cc2c(c(C(F)(F)F)c1)CN(c1cccc(C3(Cc4nncn4C)COC3)c1)C2=O)N1CC[C@H](F)C1 [Compound 412, 6-((S)-1-((S)-3-fluoropyrrolidin-1-yl)ethyl)-2-(3-(3-((4-methyl-4H-1,2,4-triazol-3-yl)methyl)oxetan-3-yl)phenyl)-4-(trifluoromethyl)isoindolin-1-one]
- fold induction at 0.3 µM (T-cell [1]; [3]): > 7.5
- fold induction at 1 µM (T-cell [1]; [4]): > 7.5
- fold induction at 4 µM (T-cell [1]; [5]): > 7.5
- fold induction at 0.37 µM (anergic human T-cells): ≤ 2.5
- fold induction at 1.11 µM (anergic human T-cells): > 4.01
- fold induction at 10 µM (anergic human T-cells): > 4.01
- fold induction at 1 µM (T-cell [2]): > 0.201
- fold induction at 8 µM (T-cell [2]): > 0.201

SMILES: Cc1cc(C(=O)Nc2cccc([C@@H](C)Cc3nncn3C)c2)nc(C2CC2)n1 [Compound 325, (S)-2-Cyclopropyl-6-methyl-N-(3-(1-(4-methyl-4H-1,2,4-triazol-3-yl)propan-2-yl)phenyl)pyrimidine-4-carboxamide]
- fold induction at 0.3 µM (T-cell [1]; [6]): 1.01 to 2.5
- fold induction at 1 µM (T-cell [1]; [7]): 1.01 to 2.5
- fold induction at 4 µM (T-cell [1]; [8]): 2.51 to 5
- Kd (Cbl-b (residues 36-427)): 0.301 to 1 µM
- fold induction at 0.37 µM (anergic human T-cells): ≤ 2.5
- fold induction at 1.11 µM (anergic human T-cells): ≤ 2.5
- fold induction at 10 µM (anergic human T-cells): ≤ 2.5

SMILES: C[C@H](Cc1nncn1C)c1cccc(NC(=O)c2cccc(C(F)(F)F)n2)c1 [Compound 183a, (R)-N-(3-(1-(4-methyl-4H-1,2,4-triazol-3-yl)propan-2-yl)phenyl)-6-(trifluoromethyl)picolinamide]
- fold induction at 0.3 µM (T-cell [1]; [6]): 2.51 to 5
- fold induction at 1 µM (T-cell [1]; [7]): 5 to 7.5
- fold induction at 4 µM (T-cell [1]; [8]): > 7.5
- Kd (Cbl-b (residues 36-427)): 0.1 to 0.3 µM
- fold induction at 0.37 µM (anergic human T-cells): ≤ 2.5
- fold induction at 1.11 µM (anergic human T-cells): 2.51 to 4
- fold induction at 10 µM (anergic human T-cells): ≤ 2.5

SMILES: C[C@H](Cc1nncn1C)c1cccc(NC(=O)c2n[nH]c3c2CCC3)c1 [Compound 313, (R)-N-(3-(1-(4-Methyl-4H-1,2,4-triazol-3-yl)propan-2-yl)phenyl)-1,4,5,6-tetrahydrocyclopenta[c]pyrazole-3-carboxamide]
- fold induction at 0.3 µM (T-cell [1]; [6]): 1.01 to 2.5
- fold induction at 1 µM (T-cell [1]; [7]): 1.01 to 2.5
- fold induction at 4 µM (T-cell [1]; [8]): 2.51 to 5
- Kd (Cbl-b (residues 36-427)): 0.301 to 1 µM
- fold induction at 0.37 µM (anergic human T-cells): ≤ 2.5
- fold induction at 1.11 µM (anergic human T-cells): ≤ 2.5
- fold induction at 10 µM (anergic human T-cells): ≤ 2.5

SMILES: Cn1cnnc1C(F)(F)[C@](C)(F)c1cccc(N2Cc3c(cc(CN4CC[C@@H](C#N)C4)cc3C(F)(F)F)C2=O)c1 [Compound 455, (R)-1-((3-oxo-2-(3-((R)-1,1,2-trifluoro-1-(4-methyl-4H-1,2,4-triazol-3-yl)propan-2-yl)phenyl)-7-(trifluoromethyl)isoindolin-5-yl)methyl)pyrrolidine-3-carbonitrile]
- fold induction at 0.3 µM (T-cell [1]; [3]): 5 to 7.5
- fold induction at 1 µM (T-cell [1]; [4]): > 7.5
- fold induction at 4 µM (T-cell [1]; [5]): > 7.5
- fold induction at 0.37 µM (anergic human T-cells): ≤ 2.5
- fold induction at 1.11 µM (anergic human T-cells): 2.51 to 4
- fold induction at 10 µM (anergic human T-cells): > 4.01
- fold induction at 1 µM (T-cell [2]): 0.151 to 0.2
- fold induction at 8 µM (T-cell [2]): > 0.201

SMILES: Cn1cnnc1CC1(c2cccc(N3Cc4c(cc(CN5CCC6(CC6)C5)cc4C(F)(F)F)C3=O)c2)COC1 [Compound 520, 6-((5-azaspiro[2.4]heptan-5-yl)methyl)-2-(3-(3-((4-methyl-4H-1,2,4-triazol-3-yl)methyl)oxetan-3-yl)phenyl)-4-(trifluoromethyl)isoindolin-1-one]
- fold induction at 0.3 µM (T-cell [1]; [3]): > 7.5
- fold induction at 1 µM (T-cell [1]; [4]): > 7.5
- fold induction at 0.37 µM (anergic human T-cells): ≤ 2.5
- fold induction at 1.11 µM (anergic human T-cells): 2.51 to 4
- fold induction at 10 µM (anergic human T-cells): > 4.01
- fold induction at 1 µM (T-cell [2]): > 0.201

SMILES: Cc1cc(C(=O)Nc2cccc([C@H](C)Cc3nncn3C)c2)nc(C2CC2)n1 [Compound 195, (R)-2-cyclopropyl-6-methyl-N-(3-(1-(4-methyl-4H-1,2,4-triazol-3-yl)propan-2-yl)phenyl)pyrimidine-4-carboxamide]
- fold induction at 0.3 µM (T-cell [1]; [6]): 5 to 7.5
- fold induction at 1 µM (T-cell [1]; [7]): > 7.5
- fold induction at 4 µM (T-cell [1]; [8]): > 7.5
- Kd (Cbl-b (residues 36-427)): < 0.1 µM
- fold induction at 0.37 µM (anergic human T-cells): ≤ 2.5
- fold induction at 1.11 µM (anergic human T-cells): ≤ 2.5
- fold induction at 10 µM (anergic human T-cells): ≤ 2.5

SMILES: C[C@H](c1cc2c(c(C(F)(F)F)c1)CN(c1cccc(C3(Cc4nncn4C)COC3)c1)C2=O)N1CC[C@H](F)C1 [Compound 413, 6-((R)-1-((S)-3-fluoropyrrolidin-1-yl)ethyl)-2-(3-(3-((4-methyl-4H-1,2,4-triazol-3-yl)methyl)oxetan-3-yl)phenyl)-4-(trifluoromethyl)isoindolin-1-one]
- fold induction at 0.3 µM (T-cell [1]; [3]): 5 to 7.5
- fold induction at 1 µM (T-cell [1]; [4]): > 7.5
- fold induction at 4 µM (T-cell [1]; [5]): > 7.5
- fold induction at 0.37 µM (anergic human T-cells): 2.51 to 4
- fold induction at 1.11 µM (anergic human T-cells): > 4.01
- fold induction at 10 µM (anergic human T-cells): > 4.01
- fold induction at 1 µM (T-cell [2]): > 0.201
- fold induction at 8 µM (T-cell [2]): > 0.201

SMILES: Cn1cnnc1CC1(c2cccc(NC(=O)c3cc(CN4CCC5(CC5)C4)cc(C4CC4)n3)c2)COC1 [Compound 519, 4-((5-azaspiro[2.4]heptan-5-yl)methyl)-6-cyclopropyl-N-(3-(3-((4-methyl-4H-1,2,4-triazol-3-yl)methyl)oxetan-3-yl)phenyl)picolinamide]
- fold induction at 0.3 µM (T-cell [1]; [3]): > 7.5
- fold induction at 1 µM (T-cell [1]; [4]): > 7.5
- fold induction at 0.37 µM (anergic human T-cells): > 4.01
- fold induction at 1.11 µM (anergic human T-cells): > 4.01
- fold induction at 10 µM (anergic human T-cells): > 4.01
- fold induction at 1 µM (T-cell [2]): > 0.201

SMILES: Cc1cc(C(=O)Nc2cccc(C3(Cc4nncn4C)COC3)c2)nc(C2CC2)n1 [Compound 336, 2-cyclopropyl-6-methyl-N-(3-(3-((4-methyl-4H-1,2,4-triazol-3-yl)methyl)oxetan-3-yl)phenyl)pyrimidine-4-carboxamide]
- fold induction at 0.3 µM (T-cell [1]; [6]): 5 to 7.5
- fold induction at 1 µM (T-cell [1]; [7]): > 7.5
- fold induction at 4 µM (T-cell [1]; [8]): > 7.5
- Kd (Cbl-b (residues 36-427)): < 0.1 µM
- fold induction at 0.37 µM (anergic human T-cells): 2.51 to 4
- fold induction at 1.11 µM (anergic human T-cells): 2.51 to 4
- fold induction at 10 µM (anergic human T-cells): > 4.01

SMILES: C[C@H](Cc1nncn1C)c1cccc(N2Cc3c(cccc3C(F)(F)F)C2=O)c1 [Compound 255a, (R)-2-(3-(1-(4-methyl-4H-1,2,4-triazol-3-yl)propan-2-yl)phenyl)-4-(trifluoromethyl)isoindolin-1-one]
- fold induction at 0.3 µM (T-cell [1]; [6]): 1.01 to 2.5
- fold induction at 1 µM (T-cell [1]; [7]): 2.51 to 5
- fold induction at 4 µM (T-cell [1]; [8]): 5 to 7.5
- Kd (Cbl-b (residues 36-427)): 0.1 to 0.3 µM
- fold induction at 0.37 µM (anergic human T-cells): ≤ 2.5
- fold induction at 1.11 µM (anergic human T-cells): 2.51 to 4
- fold induction at 10 µM (anergic human T-cells): ≤ 2.5
